Patent US9809750B2, “Liquid crystal composition” (Nanoegg Research Laboratories, Inc., priority 2009, dated 2017)

Protocol: Then, SH556 (phenyl-modified silicone oil) was added to this liquid crystal composition to prepare the liquid crystal composition of the present invention.
(§1) The solubilized concentration (saturated concentration of solubilization) of oil was measured by sample appearance, for example, cloudiness or phase separation.
Then, a mixed oil of SH556 and squalane or a mixed oil of KF50-100CS and squalane was added to the mixed surfactant aqueous solution, thereby preparing the liquid crystal compositions of the present invention. The weight ratio of a phenyl-modified silicone oil (SH556 or KF50-100CS) and squalane is 1:1 in each mixed oil. Moreover, as a comparative example, squalane alone was added to the mixed surfactant aqueous solution to prepare a liquid crystal composition for the comparative example.
The solubilized concentration of oil (mixed oil or squalane) in each liquid crystal composition was evaluated. The solubilized concentration (saturated concentration of solubilization) of oil was measured by sample appearance, for example, cloudiness or phase separation.
Then, a mixed oil of SH556 and squalane was added to each mixed surfactant aqueous solution, thereby preparing the liquid crystal compositions of the present invention. The weight ratio of SH556 and squalane is 1:1 in the mixed oil. Moreover, as comparative examples, squalane alone was added to the mixed surfactant aqueous solutions to prepare liquid crystal compositions for the comparative examples.
The solubilized concentration of oil (a mixed oil of SH556 and squalane or squalane) in each liquid crystal composition was evaluated. The solubilized concentration (saturated concentration of solubilization) of oil was measured by sample appearance, for example, cloudiness or phase separation.
Then, a mixed oil of SH556 and α-lipoic acid or a mixed oil of SH556 and oleic acid was added to the mixed surfactant aqueous solution, thereby preparing the liquid crystal compositions of the present invention. The weight ratio of SH556 and a fatty acid (α-lipoic acid or oleic acid) is 1:1 in each mixed oil.
The solubilized concentration of oil (a mixed oil of SH556 and α-lipoic acid, a mixed oil of SH556 and oleic acid, α-lipoic acid or oleic acid) in each liquid crystal composition was evaluated. The solubilized concentration (saturated concentration of solubilization) of oil was measured by sample appearance, for example, cloudiness or phase separation.
as §1

CCCCCCCCCCCCCCCCOC(=O)CCCCC(C)C [cetyl isooctanoate]
solubilized concentration of cetyl isooctanoate: up to 12.96 % by weight

CCCCCCCC/C=C\CCCCCCCC(=O)O [oleic acid]
solubilized concentration of oleic acid: up to 11.7 % by weight

CC(C)CCCC(C)CCCC(C)CCCCC(C)CCCC(C)CCCC(C)C (stereo not drawn) [squalane]
solubilized concentration of oil: could not be dissolved | solubilized concentration of squalane: up to 3.125 % by weight

phenyl trimethicone [SH556]
effect of enhancing solubility of squalane: showed the effect of enhancing solubility of squalane | solubilized concentration of oil: at least 25 % by weight
